Where a SMILES comes first, the peptide text is derived from it. Bridges are numbered along the chain shown (N, C = ends).
How the values were obtained:
[1] = Preliminary PK study in rat; assay type: in vivo; conditions: slow bolus IV injection of 49 mg/kg of NX210
Protocol: Therefore, NX210 PK in animals is followed by the measurement of its cyclic form NX218. First a preliminary PK study in rat was performed in order to validate the method for detecting NX218 in plasma then translated to monkey by performing a more robust PK study with repeated experiments. All PK studies were performed with NaCl 0.9% as vehicle.

[2] = In vitro conversion in rat plasma; assay type: in vitro ADME; conditions: preliminary

Row | Structure (SMILES) | plasma concentration of NX218 over time [1] | conversion by oxidation in rat plasma [2]
1 | N=C(N)NCCC[C@@H]1NC(=O)[C@H](CO)NC(=O)[C@@H](NC(=O)[C@H](CO)NC(=O)[C@H](CO)NC(=O)[C@H](Cc2c[nH]c3ccccc23)NC(=O)CNC(=O)[C@H](CO)NC(=O)[C@@H](N)Cc2c[nH]c3ccccc23)CSSC[C@@H](C(=O)NCC(=O)O)NC(=O)[C@H](CO)NC1=O [NX218] (H-WSGWSSCSRSCG-OH; disulfide 7-11) | impossible to quantify from 3 hours | –
2 | N=C(N)NCCC[C@H](NC(=O)[C@H](CO)NC(=O)[C@H](CS)NC(=O)[C@H](CO)NC(=O)[C@H](CO)NC(=O)[C@H](Cc1c[nH]c2ccccc12)NC(=O)CNC(=O)[C@H](CO)NC(=O)[C@@H](N)Cc1c[nH]c2ccccc12)C(=O)N[C@@H](CO)C(=O)N[C@@H](CS)C(=O)NCC(=O)O [NX210, W-S-G-W-S-S-C-S-R-S-C-G] (H-WSGWSSCSRSCG-OH) | – | rapidly converted into NX218
